Reference: patent US20190183893A1 (Guangzhou Dawnlight Biotech Company, priority 2016, published 2019)
“Also recorded” adds a separate entry of the source. Structures can show the parent of a compound that is named as a salt. Where two headings read alike, the source gives them in different places.

What was measured:
[1] = test system: transplanted tumor of prostate cancer; conditions: cited from earlier work
[2] = test system: cultured tumor cells; assay: growth of cultured tumor cells; type: cell-based; conditions: 200 μM; citrate
From the text: (§1) The antitneoplastic mechanism of sildenafil at low doses is not yet clear.
(§2) The antitneoplastic mechanism of low dose sildenafil is not yet clear.

[3] = test system: transplanted tumor in mice; type: in vivo, mouse; conditions: for tumor inhibition rate: 2 weeks; for toxicity / adverse reactions of the mice during the experimental period: citrate; for effect on the antineoplastic activity of low dose sildenafil: 2 mg/kg/day with sildenafil citrate 10 or 20 mg/kg/day
[4] = test system: human hepatocellular carcinoma cell line (HEPG2); conditions: 2 μM, citrate; cited from earlier work
[5] = test system: malignant tumors; assay: general statement on low dose sildenafil: tumor growth inhibition in vivo and tolerability; conditions: low dose: daily oral 0.04˜0.5 mg per 1 kg, injection 0.04˜0.2 mg per 1 kg or topical less than 1%; for toxicity or side effects: citrate
From the text: It can be used to achieve effective control of tumor growth and improve the treatment of tumors.

[6] = test system: transplanted tumor derived from liver cancer; conditions: mouth-fed, combined with Stivarga (regorafenib); cited from earlier work
[7] = test system: cultured tumor cells; assay: production of reactive oxygen species (ROS) in cultured tumor cells; type: cell-based; conditions: 300 μM; citrate
From the text: as §1, §2

[8] = sildenafil concentration in the blood after oral intake by an adult patient; type: in vivo, human; conditions: low oral doses (2-10 mg), estimated
From the text: as §1, §2

For `CCCc1nn(C)c2c(=O)[nH]c(-c3cc(S(=O)(=O)N4CCN(C)CC4)ccc3OCC)nc12.O=C(O)CC(O)(CC(=O)O)C(=O)O` [sildenafil, 1-[[3-(6,7-Dihydro-1-methyl-7-oxo-3-propyl-1H-pyrazolo[4,3-d]pyrimidin-5-yl)-4-ethoxyphenyl]sulfonyl]-4-methylpiperazine citrate], the “antineoplastic effect used alone” value ([1]; alone at normal doses (25-100 mg), versus control group) is listed as “not significant”, the “growth of transplanted tumor of prostate cancer” value ([1]; intraperitoneal injection, combined with Adriamycin (Doxorubicin)) is listed as “significantly inhibit the growth” and the “effect on the growth of cultured tumor cells” value [2] is listed as “direct inhibitory effect; also recorded: directly inhibited the growth”. The tumor inhibition rate ([3]; 10 mg/kg/day, combined with chlorphenamine maleate 2 mg/kg/day) was 16%, the tumor inhibition rate ([3]; 20 mg/kg/day, combined with chlorphenamine maleate 2 mg/kg/day) was 7% and the “inhibitory effect on growth of the transplanted tumor” value ([3]; 50 mg/kg/day) was “no obvious inhibitory effects”. For the same compound, the tumor inhibition rate ([3]; gavage 10 mg/kg/day, alone) was 63%, the “tumor growth inhibition rate” value ([3]; gavage 10 mg/kg/day, 36 days, dissolved in 25% ethanol) was 68% and the “toxicity / adverse reactions of the mice during the experimental period” value ([3]; gavage 10 mg/kg/day, 36 days, 10 mg/kg/day) was “no significant or observable toxicity reactions”. The “toxicity / adverse reactions of the mice during the experimental period” value ([3]; gavage 10 mg/kg/day, 36 days, listed as sildenafil citrate, 10 mg/kg/day) was “no significant or observable adverse reactions”, the tumor inhibition rate ([3]; gavage 20 mg/kg/day, alone) was 50% and the “expression of IkB nitro-tyrosine and apoptotic gene ligand Fas-L” value [4] was “stimulate the expression”. For the same compound, the “inhibition rate of tumor growth” value [5] was “more than 50%”, the “toxicity or side effects” value [5] was “does not produce significant toxicity or side effects” and the “toxicity or side effects” value ([5]; listed as Sildenafil citrate) was “without significant toxic side effects”. The “toxicity or side effects” value ([5]; listed as sildenafil citrate) was “without significant toxic side effects”, the “growth of transplanted tumor derived from liver cancer” value [6] was “significantly inhibit the growth” and the “production of reactive oxygen species (ROS)” value [7] was “induced production of reactive oxygen species (ROS); also recorded: induce the production of reactive oxygen species (ROS)”. The “drug concentration in the blood” value [8] was “lower than 0.1 μM”.
For `CN(C)CCC(c1ccc(Cl)cc1)c1ccccn1` (stereo not drawn) [chlorphenamine maleate], the “effect on the antineoplastic activity of low dose sildenafil” value [3] was “directly counteract the antineoplastic activity” and the “effect on the antineoplastic activity of low dose sildenafil” value ([3]; listed as chlorphenamine malate) was “significantly counteracted the antineoplastic activity”.
